Values of other authors, collected in PubChem BioAssay AID1259409 (Chemical Carcinogenesis Research Information System (CCRIS), 2018).

Test system: rodent chemically induced tumor inhibition, incidence and multiplicity
Experiment: CCRIS tumor inhibitor studies
Settings: for outcome: Carcinogen: DIETHYLNITROSAMINE [55-18-5], 0.005, 0.5, 500 PPM FOR 11 OR 43 WKS BEGINNING 1 WK AFTER CARCINOGEN (STUDY DURATION: 45 WKS), Route [Inhibitor]: DIET, Strain/Sex: F344/MALE, Dose [Carcinogen]: 100 MG/KG BW TWICE AT 1 WK INTERVALS (STUDY DURATION: 45 WKS); for tumour outcome (control, treated, inhibition, significance): Promoter: NONE USED

SMILES: Clc1ccc(C(c2ccc(Cl)cc2)C(Cl)(Cl)Cl)cc1
- outcome (Dose [Inhibitor]: 0, Dose [Inhibitor]: 0, Species: RAT, Target Tissue: Type of Lesion: LIVER: HEPATOCELLULAR ADENOMA): 55%; 65%, -18%; 50%, 9%; 100%, -82%
- outcome (Dose [Inhibitor]: 0, Dose [Inhibitor]: 0, Species: RAT, Target Tissue: Type of Lesion: LIVER: HEPATOCELLULAR CARCINOMA): 60%; 30%, 50%; 65%, -8%; 100%, -67%
- tumour outcome (control, treated, inhibition, significance) (Dose [Inhibitor]: 0, 7.5 MG 2/WK FOR 14 WK BEGINNING SIMULTANEOUSLY WITH CARCINOGEN TREATMENT (STUDY DURATION: 1 YR), Route [Inhibitor]: GAVAGE, Species: RAT, Strain/Sex: WISTAR/MALE, Target Tissue: Type of Lesion: LIVER: BENIGN TUMORS, Dose [Carcinogen]: 50 UG 2/WK FOR WK 1-4 OF STUDY THEN 75 UG 2/WK FOR WK 5-8): 22/25 (88%), 9/21 (43%), 51%, p<0.001
- tumour outcome (control, treated, inhibition, significance) (Dose [Inhibitor]: 0, 7.5 MG 2/WK FOR 14 WK BEGINNING SIMULTANEOUSLY WITH CARCINOGEN TREATMENT (STUDY DURATION: 1 YR), Route [Inhibitor]: GAVAGE, Species: RAT, Strain/Sex: WISTAR/MALE, Target Tissue: Type of Lesion: LIVER: CARCINOMA, Dose [Carcinogen]: 50 UG 2/WK FOR WK 1-4 OF STUDY THEN 75 UG 2/WK FOR WK 5-8): 14/25 (56%), 7/21 (33%), 41%, p<0.07

SMILES: CC(C)=CCC/C(C)=C/CC/C(C)=C/CCC1(C)CCc2cc(O)ccc2O1 (stereo not drawn)
- tumour outcome (control, treated, inhibition, significance) (Carcinogen: 7,12-DIMETHYLBENZ[A]ANTHRACENE, 57-97-6, Dose [Inhibitor]: 0, 3.381 UMOL/G IN DIET FOR DURATION OF STUDY (STUDY DURATION: 18 WK), Route [Inhibitor]: ORAL, Species: RAT, Strain/Sex: SPRAGUE-DAWLEY/FEMALE, Target Tissue: Type of Lesion: MAMMARY GLAND: TUMOR, Dose [Carcinogen]: 50 MG/KG IN SESAME OIL ONCE): 88%, 72%, 18%, not significant
- tumour outcome (control, treated, inhibition, significance) (Carcinogen: N-METHYL-N-NITROSOUREA, 684-93-5, Dose [Inhibitor]: 0, 3.381 UMOL/G IN DIET FOR DURATION OF STUDY (STUDY DURATION: 19 WK), Route [Inhibitor]: ORAL, Species: RAT, Strain/Sex: SPRAGUE-DAWLEY/FEMALE, Target Tissue: Type of Lesion: MAMMARY GLAND: TUMOR, Dose [Carcinogen]: 30 MG/KG IN ACIDIFIED SALINE ONCE): 60%, 76%, -27%, not significant

SMILES: O=C1N[C@H](C(=O)O)CS1
- tumour outcome (control, treated, inhibition, significance) (Carcinogen: DIETHYLNITROSAMINE, 55-18-5, Dose [Inhibitor]: 0, 600 MG/KG BW BY INTRAPERITONEAL INJECTION ON DAYS 13, 14 AND 15 OF AGE THEN 4 G/KG DIET FROM 21 TO 161 DAYS OF AGE (S, Route [Inhibitor]: INTRAPERITONEAL, ORAL, Species: MOUSE, Strain/Sex: C3H/MALE, Target Tissue: Type of Lesion: LIVER: ADENOMA, Dose [Carcinogen]: 4 MG/KG IN TRICAPRYLIN ONCE ON DAY 15 OF AGE): 100%, 100%, 0%, not significant

SMILES: CSc1ccc(O)cc1
- tumour outcome (control, treated, inhibition, significance) (Carcinogen: BENZO[A]PYRENE, 50-32-8, Dose [Inhibitor]: 0.03 MMOL/G OF DIET DAILY STARTING 7 D BEFORE AND CONTINUING THROUGH 3 D AFTER CARCINOGEN TREATMENT FOLLOWED BY OBSERVAT, Route [Inhibitor]: ORAL, Species: MOUSE, Strain/Sex: ICR/FEMALE, Target Tissue: Type of Lesion: FORESTOMACH: NEOPLASM, Dose [Carcinogen]: 1 MG IN 0.2 ML CORN OIL 2/WK FOR 4 WK): 100%, 89%, 11%, not significant
